{
  "source": "patent US20130011462A1",
  "about": "“MELT EXTRUDED NICOTINE THIN STRIPS” (Novartis AG, priority 2009, published 2013)",
  "key": {"[1]": {"method": "During thermo-gravimetric analysis (TGA), the weight of a sample is measured very accurately as the sample is undergoing a temperature program (usually a gradual increase in temperature). Changes in the sample that result in weight differences will be detected, and can be correlated to temperature. This technique was used to investigate the onset temperatures of dehydration and degradation of the nicotine salt.\nTable 4 details the temperature program for this study. The sample was heated from 30 to 950° C. under nitrogen (inert gas) or air."}, "[2]": {"method": "The sample weight was monitored for 20 minutes at probable extrusion temperatures of 50, 55 and 60° C. This duration is longer than expected process time for small batches including hold time in hoppers.", "remark": "listed apart in the source"}},
  "note": "Like-named read-outs stand apart in the source and are kept apart here.",
  "data": [
    {"smiles": "CN1CCCC1c1cccnc1.O.O.O=C(O)C(O)C(O)C(=O)O", "note": "(centres unmarked) [Nicotine bitartrate dihydrate]", "values": [
      {"measurement": "First Event Onset Temperature", "setting": "[1]; Air purged sample", "value": 73.93, "unit": "°C"},
      {"measurement": "Second Event Onset Temperature", "setting": "[1]; Air purged sample", "value": 190.23, "unit": "°C"},
      {"measurement": "First Event Onset Temperature", "setting": "[1]; Nitrogen purged sample", "value": 72.54, "unit": "°C"},
      {"measurement": "Second Event Onset Temperature", "setting": "[1]; Nitrogen purged sample", "value": 190.78, "unit": "°C"},
      {"measurement": "first TGA event inflection", "setting": "[1]; scan 30 to 950 °C", "value": 82, "unit": "°C"},
      {"measurement": "first TGA event onset", "setting": "[1]; scan 30 to 950 °C", "value": 73, "unit": "°C"},
      {"measurement": "second TGA event inflection", "setting": "[1]; scan 30 to 950 °C", "value": 203, "unit": "°C"},
      {"measurement": "weight loss, first TGA event", "setting": "[1]; scan 30 to 950 °C", "value": "about 4%"},
      {"measurement": "weight loss after isothermal hold", "setting": "[2]; 20 minute hold at 50 °C", "value": 0.497, "unit": "%"},
      {"measurement": "weight loss after isothermal hold", "setting": "[2]; 20 minute hold at 55 °C", "value": 0.678, "unit": "%"},
      {"measurement": "weight loss after isothermal hold", "setting": "[2]; 20 minute hold at 60 °C", "value": 1.147, "unit": "%"}
    ]}
  ]
}
